# Compound: COCC[n+]1c2c(n(Cc3cnccn3)c1C)C(=O)c1ccccc1C2=O [YM155] + NC(=O)Nc1cc(-c2cccc(F)c2)sc1C(=O)N[C@H]1CCCNC1 [AZD7762] (partner 0.2 µM)
# Experiment: relative viability (nuclei count vs DMSO), 5 days (fraction); higher = more cells survive
# Details: first compound 0.002 µM
# Summary of the method: (§1)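 Medians of duplicate plates are given as relative viability. That measure is the nuclei count in treated wells divided by the count in vehicle wells. Counts were taken on 4× images of lung cancer cell lines in 1536-well plates, 5 days after pin-tool dosing the day after seeding with one drug alone or a fixed anchor-drug dose plus five library-drug doses (not always all listed) in √10 steps.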
row,Cell Line,relative viability
1,EKVX,0.591
2,EPLC-272H,0.227
3,NCI-H650,0.835
4,RERF-LC-KJ,1.04
5,HCC-827,0.224
6,NCI-H2087,1.18
7,NCI-H1651,0.44
8,NCI-H1355,0.74
9,H3255,0.886
10,NCI-H1792,0.613
11,NCI-H647,0.429
12,LCLC-97TM1,0.158
13,NCI-H1703,0.0937
14,LXF-289,1.1
15,LU99A,0.553
16,NCI-H1437,1.11
17,CAL-12T,0.621
18,NCI-H2342,0.612
19,NCI-H522,0.699

# Same assay, conditions: first compound 0.006325 µM
row,Cell Line,relative viability
1,EKVX,0.723
2,EPLC-272H,0.296
3,NCI-H650,0.958
4,RERF-LC-KJ,1.19
5,HCC-827,0.293
6,NCI-H2087,1.29
7,NCI-H1651,0.433
8,NCI-H1355,0.749
9,H3255,0.913
10,NCI-H1792,0.574
11,NCI-H647,0.509
12,LCLC-97TM1,0.251
13,NCI-H1703,0.114
14,LXF-289,1.07
15,LU99A,0.27
16,NCI-H1437,1.08
17,SW 900,0.543
18,CAL-12T,0.715
19,NCI-H2342,0.379
20,NCI-H522,0.854

# Same assay, conditions: first compound 0.02 µM
row,Cell Line,relative viability
1,EKVX,0.747
2,EPLC-272H,0.196
3,NCI-H650,1.08
4,RERF-LC-KJ,1.06
5,HCC-827,0.239
6,NCI-H2087,1.26
7,NCI-H1651,0.533
8,NCI-H1355,0.781
9,H3255,1.05
10,NCI-H1792,0.648
11,NCI-H647,0.407
12,LCLC-97TM1,0.231
13,NCI-H1703,0.138
14,LXF-289,1.07
15,LU99A,0.412
16,NCI-H1437,1.1
17,SW 900,0.825
18,CAL-12T,0.672
19,NCI-H2342,0.515
20,NCI-H522,0.961

# Same assay, conditions: first compound 0.06325 µM
row,Cell Line,relative viability
1,EKVX,0.483
2,EPLC-272H,0.253
3,NCI-H650,0.776
4,RERF-LC-KJ,1.03
5,HCC-827,0.241
6,NCI-H2087,1.04
7,NCI-H1651,0.487
8,NCI-H1355,0.798
9,H3255,0.796
10,NCI-H1792,0.604
11,NCI-H647,0.0872
12,LCLC-97TM1,0.096
13,NCI-H1703,0.132
14,LXF-289,0.937
15,LU99A,0.28
16,NCI-H1437,0.926
17,SW 900,0.64
18,CAL-12T,0.534
19,NCI-H2342,0.383
20,NCI-H522,0.991

# Compound: COCC[n+]1c2c(n(Cc3cnccn3)c1C)C(=O)c1ccccc1C2=O [YM155] + CS(=O)(=O)N1CCN(Cc2cc3nc(-c4cccc5[nH]ncc45)nc(N4CCOCC4)c3s2)CC1 [Pictilisib] (partner 1 µM)
# Experiment: as above
# Details: first compound 0.002 µM
# Summary of the method: as §1
row,Cell Line,relative viability
1,EKVX,0.422
2,EPLC-272H,0.307
3,NCI-H520,0.236
4,NCI-H1563,0.633
5,NCI-H650,0.88
6,RERF-LC-KJ,0.527
7,HCC-827,1
8,NCI-H2087,0.868
9,SK-MES-1,0.395
10,NCI-H1299,0.653
11,NCI-H1651,0.542
12,UMC-11,0.68
13,NCI-H1355,0.403
14,H3255,0.483
15,NCI-H1792,0.331
16,NCI-H647,0.352
17,Calu-6,0.879

row,Cell Line,relative viability
1,LCLC-97TM1,0.184
2,NCI-H1703,0.26
3,LXF-289,0.772
4,LU99A,0.354
5,NCI-H2023,0.237
6,NCI-H2228,0.338
7,NCI-H1437,0.417
8,NCI-H2009,0.8
9,EBC-1,0.436
10,COR-L 105,0.332
11,SK-LU-1,0.606
12,IA-LM,0.312
13,NCI-H661,0.385
14,A549,0.511
15,SW 1573,0.484
16,NCI-H1650,0.498
17,COR-L23,0.692

# Same assay, conditions: first compound 0.006325 µM
row,Cell Line,relative viability
1,EKVX,0.497
2,EPLC-272H,0.268
3,NCI-H520,0.298
4,NCI-H1563,0.674
5,NCI-H650,0.843
6,RERF-LC-KJ,0.51
7,HCC-827,0.763
8,NCI-H2087,0.762
9,SK-MES-1,0.359
10,NCI-H1299,0.803
11,NCI-H1651,0.589
12,UMC-11,0.863
13,NCI-H1355,0.484
14,H3255,0.5
15,NCI-H1792,0.289

# Source: the supplement of paper PMC10307832
